Results from patent US20240173419A1, “CDK2 DEGRADERS AND USES THEREOF” (Kymera Therapeutics, Inc., priority 2022, published 2024).

Molecular target: T1, CDK2 (Homo sapiens, UniProt P24941)
T1 construct: endogenous in cells; host or cells: MKN1 cells
Experiment: CDK2 degradation in MKN1 cells (AlphaLISA)
Format: cell-based
Details: 14 h incubation; for DC50: read-out: CDK2 degradation 14 h: Mean external-Abs DC50
Procedure, shortened: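 MKN1 cells (2e4/well) treated 14 h at 37° C with 11-point 1:5 dilutions (0.001 nM-10 μM, 0.1% DMSO). CDK2 in lysates quantified by AlphaLISA, no-cell background subtracted; DC50 from four-parameter logistic fit.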

Compound	CDK2 degradation 14 h: Average Dmax %	DC50 [nM]
Cc1cc(S(=O)(=O)NC2CCC(CN3CCN(c4cc(NC5CCC(=O)NC5=O)ccc4F)CC3)CC2)ccc1Nc1ncc(C(F)(F)F)c(N2CCCC(C)(O)C2)n1 (centres unmarked) [I-1120]	A (A (>75% o))	< 100
Cc1cc(S(=O)(=O)NC2CCC(CN3CCN(c4ccc(C(=O)NC5CCC(=O)NC5=O)cc4C)CC3)CC2)ccc1Nc1ncc(C(F)(F)F)c(N2CCCC(C)(O)C2)n1 (centres unmarked) [I-1126]	A (A (>75% o))	100 to 500
Cc1cc(S(=O)(=O)NC2CCC(CN3CCC(c4ccc(C5CCC(=O)NC5=O)c(F)c4)CC3)CC2)ccc1Nc1ncc(C(F)(F)F)c(N2CCCC(C)(O)C2)n1 (centres unmarked) [I-1131]	A (A (>75% o))	< 100
Cc1cc(S(=O)(=O)NC2CCC(CN3CCN(c4ccc(C5CCC(=O)NC5=O)c(C(F)(F)F)c4)CC3)CC2)ccc1Nc1ncc(C(F)(F)F)c(N2CCCC(C)(O)C2)n1 (centres unmarked) [I-1138]	B (B (>50% -75%))	> 1000
Cc1cc(S(=O)(=O)NC2CCN(CC3CCN(c4ccc(C5CCC(=O)NC5=O)cc4F)CC3)CC2F)ccc1Nc1ncc(C(F)(F)F)c(N2CCCC(C)(O)C2)n1 (centres unmarked) [I-1141]	A (A (>75% o))	< 100
Cc1cc(S(=O)(=O)NC2CCC(CN3CCN(c4cccc(NC5CCC(=O)NC5=O)c4F)CC3)CC2)ccc1Nc1ncc(C(F)(F)F)c(N2CCCC(C)(O)C2)n1 (centres unmarked) [I-1143]	A (A (>75% o))	< 100
Cc1cc(S(=O)(=O)NC2CCC(CN3CCN(c4cc(F)cc(NC5CCC(=O)NC5=O)c4)CC3)CC2)ccc1Nc1ncc(C(F)(F)F)c(N2CCCC(C)(O)C2)n1 (centres unmarked) [I-1144]	A (A (>75% o))	100 to 500
Cc1cc(S(=O)(=O)NC2CCC(CN3CCN(c4cccc5c4n(C)c(=O)n5C4CCC(=O)NC4=O)CC3)CC2)ccc1Nc1ncc(C(F)(F)F)c(N2CCCC(C)(O)C2)n1 (centres unmarked) [I-1145]	A (A (>75% o))	< 100
Cc1cc(S(=O)(=O)NC2CCC(CN3CCN(c4c(C)cc(C5CCC(=O)NC5=O)cc4F)CC3)CC2)ccc1Nc1ncc(C(F)(F)F)c(N2CCCC(C)(O)C2)n1 (centres unmarked) [I-1146]	A (A (>75% o))	< 100
Cc1cc(S(=O)(=O)N2CCC(CN(C)C3CCN(c4cccc5c4n(C)c(=O)n5C4CCC(=O)NC4=O)CC3)CC2)ccc1Nc1ncc(C(F)(F)F)c(C2CCCCC2)n1 (centres unmarked) [I-1153]	A (A (>75% o))	100 to 500
Cc1cc(S(=O)(=O)N2CCC(CN(C)C3CCN(c4cccc5c4n(C)c(=O)n5C4CCC(=O)NC4=O)CC3)CC2)ccc1Nc1ncc(C(F)(F)F)c(-c2cnn(C)c2)n1 (centres unmarked) [I-1155]	A (A (>75% o))	< 100

Results, then the compound that gave them:

CDK2 degradation 14 h: Average Dmax %	DC50 [nM]	Compound
A (A (>75% o))	< 100	Cc1cc(S(=O)(=O)NC2CCC(CN3CCN(c4cc(F)cc(NC5CCC(=O)NC5=O)c4)CC3)CC2)ccc1Nc1ncc(C(F)(F)F)c(N2CCCC(C)(O)C2)n1 (centres unmarked) [I-1122]
A (A (>75% o))	< 100	Cc1cc(S(=O)(=O)NC2CCC(CN3CCN(c4ccc(C5CCC(=O)NC5=O)cc4F)C(C)C3)CC2)ccc1Nc1ncc(C(F)(F)F)c(N2CCCC(C)(O)C2)n1 (centres unmarked) [I-1137]
A (A (>75% o))	< 100	Cc1cc(S(=O)(=O)NC2CCN(CC3CCN(c4ccc(C5CCC(=O)NC5=O)cc4F)CC3)CC2F)ccc1Nc1ncc(C(F)(F)F)c(N2CCCC(C)(O)C2)n1 (centres unmarked) [I-1140]
A (A (>75% o))	< 100	Cc1cc(S(=O)(=O)NC2CCC(CN3CCN(c4ncc(C5CCC(=O)NC5=O)cc4F)CC3)CC2)ccc1Nc1ncc(C(F)(F)F)c(N2CCCC(C)(O)C2)n1 (centres unmarked) [I-1142]
A (A (>75% o))	< 100	Cc1cc(S(=O)(=O)N2CCC(CN(C)C3CCN(c4cccc5c4n(C)c(=O)n5C4CCC(=O)NC4=O)CC3)CC2)ccc1Nc1nccc(-c2cnc(C)n2C(C)C)n1 (centres unmarked) [I-1152]
